Patent publication US11440880B2, “Thalidomide analogs and methods of use” (The USA, as represented by the Secretary, Department of …, priority 2015, dated 2022)

Experiments:
Type in all cases: cell-based, mouse
Set-up in all cases: key: NS=not significant; a “+” sign=anti-inflammatory or increased cell numbers; a “−” sign=cell toxicity or pro-inflammatory
[1] = tested on: TNF-α protein; assay: TNF-α protein level (ELISA) in LPS-challenged RAW 264.7 cells; conditions: LPS 30 or 60 ng/mL, 24 h
Description: (§1) Nitrite levels in the culture media were measured by use of the Griess Reagent System (Promega, Madison, Wis.), following the manufacturer's protocol. The O.D. of unknown samples was read at 520 nm λ, compared to a sodium nitrite standard curve (1.5 μM to 100 μM) and nitrite measured media concentrations expressed as μM units. As the lowest nitrite concentration on the Griess Reagent System standard curve was 1.5 μM, this was chosen as the effective cutoff for defining measurable nitrite concentrations. TNF-α protein levels were measured by use of an ELISA specific for mouse TNF-α protein (BioLegend, San Diego, Calif.) and are expressed as a % change from their appropriate control or as pg/ml.
(§2) RAW 264.7 cells obtained from ATCC (Manassas, Va., USA) were grown in DMEM media supplemented with 10% FCS, penicillin 100 μg/ml and streptomycin 100 μg/ml, and maintained at 37° C. and 5% CO2. Cells were seeded in 24 well plates and, 24 hours later, were utilized in studies. One hour prior to the initiation of any study, the seeding media was replaced with fresh media (1 mL), and the cells were allowed to equilibrate at 37° C. and 5% CO2.
(§3) RAW 264.7 cells were challenged with LPS (Sigma, St Louis, Mo.: serotype 055:B5) from at a final concentration of 30 or 60 ng/mL. This concentration of LPS in RAW 264.7 cells induces a sub-maximal rise in both TNF-alpha and nitrite levels without a loss in cellular viability. This sub-maximal rise is useful for assessing whether the addition of an experimental drug can either lower or further raise levels of TNF-α and nitrite. Twenty four hours following the addition of LPS, conditioned media was harvested and analyzed for quantification of secreted TNF-α protein and nitrite levels. Fresh media was replaced into the wells and cell viability was then assessed.
(§4) Thalidomide and analogs were prepared in tissue culture grade DMSO (Sigma). RAW 264.7 cells were pretreated with thalidomide, analogues or vehicle one hour prior to a challenge with LPS. The effects of various concentrations of thalidomide analogues were assessed. All compounds were synthesized to a chemical purity of >99.5%, as assessed by chemical characterization by a combination of 1H NMR, 13C NMR and GC/MS analyses (Bruker AC-300 spectrometer, together with elemental analyses (Atlantic Microlab, Inc., Norcross, Ga.).

[2] = tested on: RAW 264.7 cells; assay: Cell viability (CellTiter 96 AQueous One) of LPS-challenged RAW 264.7 cells
Description: The CellTiter 96® AQueous One Solution Cell Proliferation Assay (Promega, Madison, Wis.) is routinely used as an assay of cell proliferation, and was used according to the manufacturer's recommendations. Changes in cellular health status are determined by use of indirect measures related to the formation of a colored tetrazolium dye product that can be measured spectrophotometrically at 490 nm λ. […] Optical densities (expressed as O.D.s) were measured after various incubations.
as §2, §3, §4

[3] = tested on: nitrite levels in the culture media; assay: Nitrite level (Griess Reagent System) in LPS-challenged RAW 264.7 cells; conditions: LPS 30 or 60 ng/mL, 24 h
Description: as §1, §2, §3, §4

Row | SMILES | TNF-α ([1]; 3 μM) | TNF-α ([1]; 10 μM) | TNF-α ([1]; 30 μM) | Viability ([2]; 3 μM) | Viability ([2]; 10 μM) | Viability ([2]; 30 μM) | TNF-α ([1]; 1 μM) | Nitrite ([3]; 1 μM) | Nitrite ([3]; 10 μM) | Nitrite ([3]; 30 μM) | Viability ([2]; 1 μM) | TNF-α ([1]; 60 μM) | Nitrite ([3]; 60 μM) | Viability ([2]; 60 μM)
1 | c1ccc2c(c1)CN=C2C1=NCc2ccccc21 [Compound 106] | NS | NS | NS | + | + | + |  |  |  |  |  |  |  | 
2 | CC(N1Cc2ccccc2C1=O)C12CC3CC(CC(C3)C1)C2 (stereo not shown) [Compound 71] |  | NS | + |  | NS | − | NS | NS | NS | + | NS |  |  | 
3 | CC1(C)[C@@H]2CC[C@H](CN3C(=O)C4C5C=CC(C5)C4C3=O)[C@H]1C2 (stereo partly shown) [Compound 114] |  | + | + |  | − | − |  |  | + | + |  | + | + | −
4 | C[C@@H]1[C@@H](N2C=C3C(=CC=C/C3=N\OO)C2=O)C[C@H]2C[C@@H]1C2(C)C [Compound 105] |  | NS | + |  | NS | − | NS | NS | + | + | NS |  |  | 
5 | Nc1ccc2c(c1)C(=O)N(C1=CNC(=O)CC1)C2 [Compound 43] | NS | NS | NS | NS | NS | NS |  |  |  |  |  |  |  | 
6 | C[C@H]1[C@H](N2C(=O)C3C4C=CC(C4)C3C2=O)C[C@@H]2C[C@H]1C2(C)C (stereo partly shown) [Compound 119] |  | + | + |  | − | − |  |  | + | + |  | + | + | −
7 | CC1(C)[C@@H]2CC[C@@]1(C)[C@@H](N1C(=O)C3C4C=CC(C4)C3C1=O)C2 (stereo partly shown) [Compound 116] |  | NS | NS |  | − | − |  |  | NS | NS |  | NS | NS | NS
8 | CC1(C)[C@@H]2CC[C@]1(C)[C@@H](N1Cc3c(cccc3[N+](=O)[O-])C1=O)C2 [Compound 96] |  | + | + |  | − | NS | NS | + | + | + | − |  |  | 
9 | CC1(C)[C@@H]2CC[C@]1(C)[C@H](N1Cc3c(cccc3[N+](=O)[O-])C1=O)C2 [Compound 94] |  | + | + |  |  | − | NS | + | + | + | NS |  |  | 
10 | CC1(C)[C@@H]2CC[C@H](CN3Cc4c(cccc4[N+](=O)[O-])C3=O)[C@H]1C2 [Compound 103] |  | + | SIG |  | NS | SIG | NS | + | + | NS | NS |  |  | 
11 | C[C@H]1[C@H](N2C(=O)C3C4C=CC(C4)C3C2=O)C[C@@H]2C[C@H]1C2(C)C (stereo partly shown) [Compound 120] |  | + |  |  | − |  |  |  |  |  |  |  |  | 
12 | Nc1cccc2c1CN([C@@H]1C[C@H]3CC[C@@H]1C3)C2=O [Compound 100] |  | NS | NS |  | NS | NS | NS | NS | NS | NS | NS |  |  | 
13 | CC1(C)[C@@H]2CC[C@H](CN3C(=O)C4C5C=CC(C5)C4C3=O)[C@H]1C2 (stereo partly shown) [Compound 113] |  | NS | + |  | − | − |  |  | NS | + |  | + | + | −
14 | Nc1cccc2c1CN(CC13CC4CC(CC(C4)C1)C3)C2=O [Compound 79] |  | NS | NS |  | NS | − | NS | NS | NS | + | NS |  |  | 
15 | O=C1CCCC(=O)N1CN1C(=O)CCC(N2Cc3ccccc3C2=O)C1=O (stereo not shown) [Compound 48] |  | + | + |  | NS | NS | + |  |  |  | NS |  |  | 
16 | Nc1cccc2c1CN(C13CC4CC(CC(O)(C4)C1)C3)C2=O [Compound 88] |  | NS | NS |  | NS | NS | NS | NS | NS | NS | NS |  |  | 
17 | Nc1ccc2c(c1)C(=O)N(C1CC=CNC1=O)C2 (stereo not shown) [Compound 44] | NS | NS | + | NS | NS | NS |  |  |  |  |  |  |  | 
18 | C[C@H]1[C@H](N2Cc3c(cccc3[N+](=O)[O-])C2=O)C[C@@H]2C[C@H]1C2(C)C [Compound 90] |  | + | + |  | NS | NS | + | + | + | + | NS |  |  | 
